Results: patent US12319655B2, “RAF kinase inhibitors and methods of use thereof” (Deciphera Pharmaceuticals, LLC, priority 2021, dated 2025)

Key:
[1] = biological target: C-Raf kinase (SEQ. ID NO: 3) (Homo sapiens (Human), UniProt P04049, Y340D/Y341D); experiment: Biochemical Assay for C-Raf (1); details: Table J, assay version (1); read-out: CRAF (1) IC50
Summary of the method: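 Coupled pyruvate kinase/LDH assay tracking NADH oxidation at 340 nm, with 0.43 nM C-Raf, 30.1 nM MEK and 1 mM ATP in pH 7.5 Tris buffer (15 mM MgCl2, 1% DMSO final). Read continuously for 6 h at 30 °C, rate taken from the 4–5 h window. IC50 from four-parameter fit of percent inhibition.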

[2] = biological target: B-Raf (V600E) (SEQ. ID NO: 4) kinase (Homo sapiens (Human), UniProt P15056, V600E); experiment: Biochemical Assay for B-Raf (V600E) (1); details: Table J, BRAF V600E, assay version (1); read-out: BRAF VE (1) IC50
Summary of the method: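 Coupled pyruvate kinase/lactate dehydrogenase assay: 0.03 nM B-Raf V600E, 30.1 nM MEK, 1 mM ATP, pH 7.5 Tris/MgCl2 buffer, 1% DMSO. NADH oxidation followed at 340 nm for 6 h at 30 °C; rate from 3–4 h converted to percent inhibition, IC50 by four-parameter fit.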

[3] = system: A375 cells; experiment: A375 Cell Proliferation Assay (1); format: cell-based; details: Homo sapiens, A-375
Summary of the method: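 Resazurin fluorescence (excitation 540 nm, emission 600 nm, after a further 5-6 h) gave IC50s from triplicate compound dilution series.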

[4] = system: WM3928 cells; experiment: WM3928 Cell Proliferation Assay (1); format: cell-based
Procedure: WM3928 Cell Proliferation Assay (1)
WM3928 cells (#WM3928-01-0001) are obtained from Rockland Immunochemicals Inc (Gilbertsville, PA). Briefly, cells were grown in MCDB 153 medium (Sigma, #M7403, St. Louis, MO) supplemented with 20% Leibovitz's L-15 (ThermoFisher #11415-064, Waltham, MA), 2% heat inactivated fetal bovine serum (ThermoFisher, #A3840001, Waltham, MA), 5 μg/mL Insulin (Bovine Pancreas) (Sigma, #I0516, St. Louis, MO), 1.68 mM Calcium Chloride (Sigma, #C-34006, St. Louis, MO) and 1% Penicillin/Streptomycin/L-Glutamine (ThermoFisher #10378016, Waltham, MA) at 37° C., 5% CO2, and 95% humidity. Cells are expanded until reaching 70-95% confluency at which point they are subcultured or harvested for assay use. A serial dilution of test compound is dispensed into a 96-well black clear bottom plate in triplicate. Three thousand cells are added per well in 200 μL complete growth medium in the 96-well plate. Plates are incubated for 67-72 hours at 37° C., 5% CO2, and 95% humidity. At the end of the incubation, 40 μL of a 440 μM solution of resazurin (Sigma, #199303, St. Louis, MO) in PBS is added to each well of the plate and plates are incubated for an additional 6-7 hours at 37° C., 5% CO2, and 95% humidity. Plates are read on a Synergy2 or equivalent reader (Biotek, Winooski VT) using an excitation of 540 nm and an emission of 600 nm. Data is analyzed using Prism software (GraphPad, San Diego, CA) to calculate IC50 values.

C-Raf kinase (SEQ. ID NO: 3), sequence (P04049 307-648 Y340D/Y341D): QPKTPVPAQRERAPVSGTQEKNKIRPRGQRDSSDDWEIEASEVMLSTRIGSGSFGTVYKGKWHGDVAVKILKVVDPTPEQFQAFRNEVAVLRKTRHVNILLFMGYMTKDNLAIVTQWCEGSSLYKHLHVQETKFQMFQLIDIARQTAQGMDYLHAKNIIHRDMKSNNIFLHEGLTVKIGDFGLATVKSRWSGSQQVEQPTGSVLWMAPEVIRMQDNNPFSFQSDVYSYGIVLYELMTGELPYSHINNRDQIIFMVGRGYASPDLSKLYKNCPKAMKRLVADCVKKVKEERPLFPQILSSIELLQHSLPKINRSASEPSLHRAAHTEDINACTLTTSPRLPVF
B-Raf (V600E) (SEQ. ID NO: 4) kinase, sequence (P15056 416-766 V600E): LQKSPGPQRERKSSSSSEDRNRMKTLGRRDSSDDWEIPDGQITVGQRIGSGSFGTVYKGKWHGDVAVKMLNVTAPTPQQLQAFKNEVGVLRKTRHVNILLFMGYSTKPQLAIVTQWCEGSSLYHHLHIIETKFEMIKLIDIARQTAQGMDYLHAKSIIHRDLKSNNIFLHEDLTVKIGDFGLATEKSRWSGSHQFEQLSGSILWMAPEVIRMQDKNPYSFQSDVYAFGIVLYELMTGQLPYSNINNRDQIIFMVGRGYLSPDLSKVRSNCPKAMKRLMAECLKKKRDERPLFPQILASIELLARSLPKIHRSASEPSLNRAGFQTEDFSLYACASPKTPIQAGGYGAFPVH

SMILES: CC(=O)Nc1cc(-c2cc(-c3cc(NC(=O)c4ccnc(C(F)(F)F)c4)c(F)cc3C)cc(C)n2)ccn1 [Example 4]
- IC50 [1]: ≤ 0.1 µM
- IC50 [2]: ≤ 0.1 µM
- IC50 [3]: 0.1 to 0.5 µM

SMILES: CC(=O)Nc1cc(-c2cc(-c3cc(NC(=O)c4ccnc(C(F)(F)F)c4)ccc3C)cc(C)n2)ccn1 [Example 5]
- IC50 [1]: ≤ 0.1 µM
- IC50 [2]: ≤ 0.1 µM
- IC50 [3]: 0.1 to 0.5 µM
- IC50 [4]: ≤ 0.1 µM

SMILES: CC(=O)Nc1cc(-c2cc(-c3cc(NC(=O)c4ccnc(C(F)(F)F)c4)ccc3C)ccn2)ccn1 [Example 6]
- IC50 [1]: ≤ 0.1 µM
- IC50 [2]: ≤ 0.1 µM
- IC50 [3]: ≤ 0.1 µM

SMILES: Cc1cc(F)c(NC(=O)c2ccnc(C(F)(F)F)c2)cc1-c1ccnc(-c2ccnc(NC(=O)CN(C)C)c2)c1 [Example 7]
- IC50 [1]: ≤ 0.1 µM
- IC50 [2]: ≤ 0.1 µM
- IC50 [3]: 0.5 to 1 µM

SMILES: CCOc1cc(-c2cc(NC(=O)c3ccnc(C(F)(F)F)c3)ccc2C)cc(-c2ccnc(NC(C)=O)c2)n1 [Example 8]
- IC50 [1]: ≤ 0.1 µM
- IC50 [2]: ≤ 0.1 µM
- IC50 [3]: ≤ 0.1 µM

SMILES: CC(=O)Nc1cc(-c2cc(-c3cc(NC(=O)c4ccnc(C(F)(F)F)c4)c(F)cc3C)cc(OC(C)C)n2)ccn1 [Example 10]
- IC50 [1]: 0.1 to 0.5 µM
- IC50 [2]: ≤ 0.1 µM
- IC50 [3]: ≤ 0.1 µM
- IC50 [4]: ≤ 0.1 µM

SMILES: CC(=O)Nc1cc(-c2cc(-c3cc(NC(=O)c4ccnc(C(F)(F)F)c4)ccc3C)cc(=O)n2C)ccn1 [Example 11]
- IC50 [1]: ≤ 0.1 µM
- IC50 [2]: ≤ 0.1 µM
- IC50 [3]: 1 to 10 µM

SMILES: Cc1ncc(NC(=O)c2ccnc(C(F)(F)F)c2)cc1-c1cccc(-c2ccnc(N)c2)c1 [Example 94]
- IC50 [1]: ≤ 0.1 µM
- IC50 [2]: ≤ 0.1 µM
- IC50 [3]: 1 to 10 µM

SMILES: Cc1ncc(NC(=O)c2cccc(C(F)(F)F)c2)cc1-c1cccc(-c2ccnc(NC(=O)CC#N)c2)c1 [Example 97]
- IC50 [1]: ≤ 0.1 µM
- IC50 [2]: ≤ 0.1 µM
- IC50 [3]: 0.1 to 0.5 µM
- IC50 [4]: ≤ 0.1 µM

SMILES: Cc1ccc(NC(=O)c2ccnc(C(F)(F)F)c2)cc1-c1cncc(-c2ccnc(NC(=O)CC#N)c2)n1 [Example 98]
- IC50 [1]: ≤ 0.1 µM
- IC50 [2]: ≤ 0.1 µM
- IC50 [3]: 0.5 to 1 µM

SMILES: COCC(=O)Nc1cc(-c2cncc(-c3cc(NC(=O)c4ccnc(C(F)(F)F)c4)ccc3C)n2)ccn1 [Example 99]
- IC50 [1]: ≤ 0.1 µM
- IC50 [2]: ≤ 0.1 µM
- IC50 [3]: 0.5 to 1 µM

SMILES: Cc1ccc(NC(=O)c2ccnc(C(F)(F)F)c2)cc1-c1cncc(-c2ccnc(NC(=O)CN(C)C)c2)n1 [Example 100]
- IC50 [1]: ≤ 0.1 µM
- IC50 [2]: ≤ 0.1 µM
- IC50 [3]: 0.1 to 0.5 µM

SMILES: Cc1ccc(NC(=O)c2ccnc(C(C)(C)C#N)c2)cc1-c1ccnc(-c2ccnc3c2CC(=O)N3)n1 [Example 101]
- IC50 [1]: ≤ 0.1 µM
- IC50 [2]: ≤ 0.1 µM
- IC50 [3]: 0.5 to 1 µM
- IC50 [4]: 0.1 to 0.5 µM

SMILES: CC(=O)Nc1cc(-c2cc(-c3cc(NC(=O)c4ccnc(C(F)(F)F)c4)ccc3C)cn(CCO)c2=O)ccn1 [Example 102]
- IC50 [1]: 0.1 to 0.5 µM
- IC50 [2]: ≤ 0.1 µM
- IC50 [3]: 1 to 10 µM

SMILES: CC(=O)Nc1cc(-c2ccnc(-c3cc(NC(=O)c4ccnc(C(C)(C)C#N)c4)ccc3C)n2)ccn1 [Example 103]
- IC50 [1]: ≤ 0.1 µM
- IC50 [2]: ≤ 0.1 µM
- IC50 [3]: ≤ 0.1 µM
- IC50 [4]: ≤ 0.1 µM

SMILES: Cc1cc(F)c(NC(=O)c2ccnc(C(C)(C)C#N)c2)cc1-c1ccnc(-c2ccnc(NC=O)c2)c1 [Example 104]
- IC50 [1]: ≤ 0.1 µM
- IC50 [2]: ≤ 0.1 µM
- IC50 [3]: ≤ 0.1 µM
- IC50 [4]: ≤ 0.1 µM

SMILES: Cc1ncc(NC(=O)c2ccnc(C(C)(C)C#N)c2)cc1-c1cccc(-c2ccnc3c2CC(=O)N3)c1 [Example 105]
- IC50 [1]: ≤ 0.1 µM
- IC50 [2]: ≤ 0.1 µM
- IC50 [3]: 1 to 10 µM
- IC50 [4]: 0.1 to 0.5 µM

SMILES: CNC(=O)c1cc(-c2cccc(-c3cc(NC(=O)c4ccnc(C(F)(F)F)c4)ccc3C)c2)ncn1 [Example 106]
- IC50 [1]: ≤ 0.1 µM
- IC50 [2]: ≤ 0.1 µM
- IC50 [3]: 0.5 to 1 µM

SMILES: CC(=O)Nc1cc(-c2nccc(-c3cc(NC(=O)c4ccnc(C(F)(F)F)c4)c(F)cc3C)n2)ccn1 [Example 107]
- IC50 [1]: ≤ 0.1 µM
- IC50 [2]: ≤ 0.1 µM
- IC50 [3]: 0.1 to 0.5 µM

SMILES: Cc1ccc(NC(=O)c2cccc(C(C)(C)C#N)c2)cc1-c1cc(OCCO)nc(-c2ccnc3c2CC(=O)N3)c1 [Example 108]
- IC50 [1]: ≤ 0.1 µM
- IC50 [2]: ≤ 0.1 µM
- IC50 [3]: ≤ 0.1 µM
- IC50 [4]: ≤ 0.1 µM

SMILES: Cc1ccc(NC(=O)c2ccnc(C(C)(C)C#N)c2)cc1-c1cccc(-c2ncnc3c2CC(=O)N3)c1 [Example 109]
- IC50 [1]: ≤ 0.1 µM
- IC50 [2]: ≤ 0.1 µM
- IC50 [3]: 0.1 to 0.5 µM
- IC50 [4]: ≤ 0.1 µM

SMILES: COc1cc(C(=O)Nc2ccc(C)c(-c3cncc(-c4ccnc(NC(C)=O)c4)n3)c2)ccc1F [Example 120]
- IC50 [1]: ≤ 0.1 µM
- IC50 [2]: ≤ 0.1 µM
- IC50 [3]: 1 to 10 µM

SMILES: CC(=O)Nc1cc(-c2cncc(-c3cc(NC(=O)c4ccc(Cl)c(C(F)(F)F)c4)ccc3C)n2)ccn1 [Example 121]
- IC50 [1]: ≤ 0.1 µM
- IC50 [2]: ≤ 0.1 µM
- IC50 [3]: 0.1 to 0.5 µM

SMILES: CNC(=O)c1cc(-c2cc(-c3cc(NC(=O)c4cccc(C(C)(C)C#N)c4)ccc3C)ccn2)ccn1 [Example 127]
- IC50 [1]: ≤ 0.1 µM
- IC50 [2]: ≤ 0.1 µM
- IC50 [3]: ≤ 0.1 µM

SMILES: COCC(=O)Nc1cc(-c2cccc(-c3cc(NC(=O)c4ccnc(C(F)(F)F)c4)cnc3C)n2)ccn1 [Example 130]
- IC50 [1]: ≤ 0.1 µM
- IC50 [2]: ≤ 0.1 µM
- IC50 [3]: 1 to 10 µM

SMILES: Cc1ccc(NC(=O)c2ccnc(C(C)(C)C#N)c2)cc1-c1cccc(-c2ccnc3[nH]ccc23)c1 [Example 133]
- IC50 [1]: 0.1 to 0.5 µM
- IC50 [2]: ≤ 0.1 µM
- IC50 [3]: 1 to 10 µM

SMILES: CNC(=O)c1cc(-c2cncc(-c3cc(NC(=O)c4cc(C(F)(F)F)ccn4)ccc3C)n2)ccn1 [Example 135]
- IC50 [1]: ≤ 0.1 µM
- IC50 [2]: ≤ 0.1 µM
- IC50 [3]: 0.5 to 1 µM

SMILES: CNC(=O)c1cc(-c2cncc(-c3cc(NC(=O)c4cccc(C(C)(C)C#N)c4)ccc3C)n2)ccn1 [Example 136]
- IC50 [1]: ≤ 0.1 µM
- IC50 [2]: ≤ 0.1 µM
- IC50 [3]: ≤ 0.1 µM

SMILES: CNC(=O)c1cc(-c2cncc(-c3cc(NC(=O)c4ccnc(C5(C#N)CC5)c4)ccc3C)n2)ccn1 [Example 138]
- IC50 [1]: ≤ 0.1 µM
- IC50 [2]: ≤ 0.1 µM
- IC50 [3]: 0.1 to 0.5 µM

SMILES: CNC(=O)c1cc(-c2cncc(-c3cc(NC(=O)c4ccnc(C5CC5)c4)ccc3C)n2)ccn1 [Example 139]
- IC50 [1]: ≤ 0.1 µM
- IC50 [2]: ≤ 0.1 µM
- IC50 [3]: 1 to 10 µM

SMILES: Cc1ccc(NC(=O)c2ccnc(C(C)(C)C#N)c2)cc1-c1cncc(-c2ccnc(N)c2)n1 [Example 141]
- IC50 [1]: ≤ 0.1 µM
- IC50 [2]: ≤ 0.1 µM
- IC50 [3]: 1 to 10 µM

SMILES: COCC(=O)Nc1cc(-c2cncc(-c3cc(NC(=O)c4ccnc(C(C)(C)C#N)c4)ccc3C)n2)ccn1 [Example 142]
- IC50 [1]: ≤ 0.1 µM
- IC50 [2]: ≤ 0.1 µM
- IC50 [3]: ≤ 0.1 µM

SMILES: COCCNc1cc(-c2cncc(-c3cc(NC(=O)c4ccnc(C(C)(C)C#N)c4)ccc3C)n2)ccn1 [Example 143]
- IC50 [1]: ≤ 0.1 µM
- IC50 [2]: ≤ 0.1 µM
- IC50 [3]: 1 to 10 µM

SMILES: CC(=O)Nc1cc(-c2nccc(-c3cc(NC(=O)c4cc(C(F)(F)F)ccn4)ccc3C)n2)ccn1 [Example 153]
- IC50 [1]: ≤ 0.1 µM
- IC50 [2]: ≤ 0.1 µM
- IC50 [3]: ≤ 0.1 µM

SMILES: CNC(=O)c1cc(-c2nccc(-c3cc(NC(=O)c4ccnc(C(C)(C)C#N)c4)c(F)cc3C)n2)ccn1 [Example 166]
- IC50 [1]: 0.1 to 0.5 µM
- IC50 [2]: ≤ 0.1 µM
- IC50 [3]: 0.1 to 0.5 µM

SMILES: CNc1cc(-c2cncc(-c3cc(NC(=O)c4ccnc(C(C)(C)C#N)c4)ccc3C)n2)ccn1 [Example 173]
- IC50 [1]: ≤ 0.1 µM
- IC50 [2]: ≤ 0.1 µM
- IC50 [3]: 0.5 to 1 µM
